Laboratory results: ChEMBL document CHEMBL5344449, “Retinestatin, a Polyol Polyketide from a Termite Nest-Derived Streptomyces sp” (2024)
Calls of active or inactive are those of the source. No cut-off for these calls is given here.

Legend:
Escherichia coli = experiment: Antibacterial activity against Escherichia coli ATCC 25922 assessed as reduction in bacterial growth after 24 hrs by CLSI protocol based analysis; assay type: functional
[1] = system: Trichophyton mentagrophytes; experiment: Antifungal activity against Trichophyton mentagrophytes IFM 40996 assessed as inhibition of fungal growth incubated for 96 hrs by CLSI protocol based analysis; assay type: functional
Klebsiella pneumoniae = experiment: Antibacterial activity against Klebsiella pneumoniae ATCC 10031 assessed as reduction in bacterial growth after 24 hrs by CLSI protocol based analysis; assay type: functional
SH-SY5Y [2] = experiment: Neuroprotective activity against MPP-induced cytotoxicity in human SH-SY5Y cells assessed as decrease in cell death at 10 umol/L preincubated with compound for 24 hrs followed by MPP addition and measured after 24 hrs by MTT assay; assay type: functional, cell-based; conditions: dose 10.0 µmol/L, time 48.0 hrs
Aspergillus fumigatus = experiment: Antifungal activity against Aspergillus fumigatus HIC 6094 assessed as inhibition of fungal growth incubated for 48 hrs by CLSI protocol based analysis; assay type: functional
[3] = system: Mycobacterium tuberculosis; experiment: Antitubercular activity against wild type Mycobacterium tuberculosis mc2 6230 assessed as bacterial growth inhibition incubated for 5 days by resazurin microtiter assay; assay type: functional; conditions: mc2 6230, 120 h, time 5 day
Enterococcus faecalis = experiment: Antibacterial activity against Enterococcus faecalis ATCC 19433 assessed as reduction in bacterial growth after 24 hrs by CLSI protocol based analysis; assay type: functional
Staphylococcus aureus [4] = experiment: Antibacterial activity against methicillin-resistant Staphylococcus aureus ATCC 43300 assessed as reduction in bacterial growth incubated for 24 hrs by CLSI protocol based analysis; assay type: functional
Enterococcus faecium = experiment: Antibacterial activity against Enterococcus faecium ATCC 19434 assessed as reduction in bacterial growth after 24 hrs by CLSI protocol based analysis; assay type: functional
SH-SY5Y [5] = experiment: Neuroprotective activity against MPP-induced cytotoxicity in human SH-SY5Y cells assessed as decrease in Bak mRNA expression level at 10 umol/L by RT-qPCR analysis; assay type: functional, cell-based; conditions: dose 10.0 µmol/L
Trichophyton rubrum = experiment: Antifungal activity against Trichophyton rubrum NBRC 9185 assessed as inhibition of fungal growth incubated for 96 hrs by CLSI protocol based analysis; assay type: functional
SH-SY5Y [6] = experiment: Neuroprotective activity against MPP-induced cytotoxicity in human SH-SY5Y cells assessed as increase in Bcl-xL mRNA expression level at 10 umol/L by RT-qPCR analysis; assay type: functional, cell-based; conditions: dose 10.0 µmol/L
Candida albicans = experiment: Antifungal activity against Candida albicans ATCC 10231 assessed as reduction in fungal growth incubated for 24 hrs by CLSI protocol based analysis; assay type: functional
Staphylococcus aureus [7] = experiment: Antibacterial activity against Staphylococcus aureus ATCC 25923 assessed as reduction in bacterial growth incubated for 24 hrs by CLSI protocol based analysis; assay type: functional
Salmonella enterica = experiment: Antibacterial activity against Salmonella enterica ATCC 14028 assessed as reduction in bacterial growth after 24 hrs by CLSI protocol based analysis; assay type: functional

CCC/C=C/C=C/C=C/[C@@H](O)C[C@]1(O)O[C@H](C[C@H](O)[C@@H](O)[C@H](O)[C@H]2OC(=O)[C@@H](C)[C@@H]2O)[C@@H](O)[C@H](O)[C@@H]1O
MIC (Escherichia coli): > 128 µg/mL | MIC [1]: > 128 µg/mL | MIC (Klebsiella pneumoniae): > 128 µg/mL | Activity (SH-SY5Y [2]): Active | MIC (Aspergillus fumigatus): > 128 µg/mL | MIC [3]: > 128 µg/mL | MIC (Enterococcus faecalis): > 128 µg/mL | MIC (Staphylococcus aureus [4]): > 128 µg/mL | MIC (Enterococcus faecium): > 128 µg/mL | Activity (SH-SY5Y [5]): Active | MIC (Trichophyton rubrum): > 128 µg/mL | Activity (SH-SY5Y [6]): Active | MIC (Candida albicans): > 128 µg/mL | MIC (Staphylococcus aureus [7]): > 128 µg/mL | MIC (Salmonella enterica): > 128 µg/mL
